Test results taken from the NIST ThermoML archive (doi:10.1016/j.tca.2007.03.018).

Columns and labels:
[1] = Molar enthalpy of transition or fusion
[2] = molar heat capacity at constant pressure; settings: 101.33 kPa

C1C2CC3CC1CC(C14CC5CC(CC(C5)C1)C4)(C2)C3 [1,1'-biadamantane]
[1]
Settings	Molar enthalpy of transition or fusion [kcal/mol]
Crystal 1, DSC	16.7
Crystal 2, DSC	0.311
Crystal 3, Adiabatic calorimetry	0.276

[2]
Settings	molar heat capacity at constant pressure [J/K/mol]
5 K, Crystal 3, Small (less than 1 g) adiabatic calorimetry	0.4412
10 K, Crystal 3, Small (less than 1 g) adiabatic calorimetry	3.035
20 K, Crystal 3, Small (less than 1 g) adiabatic calorimetry	16
30 K, Crystal 3, Small (less than 1 g) adiabatic calorimetry	30.58
40 K, Crystal 3, Small (less than 1 g) adiabatic calorimetry	42.31
50 K, Crystal 3, Small (less than 1 g) adiabatic calorimetry	52.05
60 K, Crystal 3, Small (less than 1 g) adiabatic calorimetry	60.95
70 K, Crystal 3, Small (less than 1 g) adiabatic calorimetry	69.55
80 K, Crystal 3, Small (less than 1 g) adiabatic calorimetry	78.54
90 K, Crystal 3, Small (less than 1 g) adiabatic calorimetry	87.69
100 K, Crystal 3, Small (less than 1 g) adiabatic calorimetry	97.04
110 K, Crystal 3, Small (less than 1 g) adiabatic calorimetry	106.6
120 K, Crystal 3, Small (less than 1 g) adiabatic calorimetry	116.4
130 K, Crystal 3, Small (less than 1 g) adiabatic calorimetry	126.3
140 K, Crystal 3, Small (less than 1 g) adiabatic calorimetry	136.4
150 K, Crystal 3, Small (less than 1 g) adiabatic calorimetry	146.7
160 K, Crystal 3, Small (less than 1 g) adiabatic calorimetry	157.3
170 K, Crystal 3, Small (less than 1 g) adiabatic calorimetry	168.2
180 K, Crystal 3, Small (less than 1 g) adiabatic calorimetry	179.3
190 K, Crystal 3, Small (less than 1 g) adiabatic calorimetry	190.7
200 K, Crystal 3, Small (less than 1 g) adiabatic calorimetry	202.7
210 K, Crystal 3, Small (less than 1 g) adiabatic calorimetry	214.7
220 K, Crystal 3, Small (less than 1 g) adiabatic calorimetry	227.1
230 K, Crystal 3, Small (less than 1 g) adiabatic calorimetry	240
240 K, Crystal 3, Small (less than 1 g) adiabatic calorimetry	253.4
250 K, Crystal 3, Small (less than 1 g) adiabatic calorimetry	267.7
260 K, Crystal 3, Small (less than 1 g) adiabatic calorimetry	281.1
270 K, Crystal 3, Small (less than 1 g) adiabatic calorimetry	295.3
273.15 K, Crystal 3, Small (less than 1 g) adiabatic calorimetry	299.8
280 K, Crystal 3, Small (less than 1 g) adiabatic calorimetry	309.6
290 K, Crystal 3, Small (less than 1 g) adiabatic calorimetry	324
298.15 K, Crystal 3, Small (less than 1 g) adiabatic calorimetry	335.3
300 K, Crystal 3, Small (less than 1 g) adiabatic calorimetry	338
310 K, Crystal 3, Small (less than 1 g) adiabatic calorimetry	352.8
320 K, Crystal 3, Small (less than 1 g) adiabatic calorimetry	366.5
330 K, Crystal 3, Small (less than 1 g) adiabatic calorimetry	378.2
336.3 K, Crystal 2, Small (less than 1 g) adiabatic calorimetry	385
336.3 K, Crystal 3, Small (less than 1 g) adiabatic calorimetry	385
340 K, Crystal 2, Small (less than 1 g) adiabatic calorimetry	389
350 K, Crystal 2, Small (less than 1 g) adiabatic calorimetry	400
360 K, Crystal 2, Small (less than 1 g) adiabatic calorimetry	412
370 K, Crystal 2, Small (less than 1 g) adiabatic calorimetry	424
380 K, Crystal 2, Large sample (1 g) DSC	437
390 K, Crystal 2, Large sample (1 g) DSC	450
400 K, Crystal 2, Large sample (1 g) DSC	463
410 K, Crystal 2, Large sample (1 g) DSC	477
417.8 K, Crystal 2, Large sample (1 g) DSC	487
420 K, Crystal 2, Large sample (1 g) DSC	491
430 K, Crystal 2, Large sample (1 g) DSC	505
440 K, Crystal 2, Large sample (1 g) DSC	520
450 K, Crystal 2, Large sample (1 g) DSC	535
460 K, Crystal 2, Large sample (1 g) DSC	551
470 K, Crystal 2, Large sample (1 g) DSC	567
480 K, Crystal 2, Large sample (1 g) DSC	582
490 K, Crystal 2, Large sample (1 g) DSC	598
500 K, Crystal 2, Large sample (1 g) DSC	614
509.6 K, Crystal 1, Large sample (1 g) DSC	629
509.6 K, Crystal 2, Large sample (1 g) DSC	629
510 K, Crystal 1, Large sample (1 g) DSC	630
520 K, Crystal 1, Large sample (1 g) DSC	646
530 K, Crystal 1, Large sample (1 g) DSC	662
535 K, Crystal 1, Large sample (1 g) DSC	669
540 K, Crystal 1, Large sample (1 g) DSC	677
545 K, Crystal 1, Large sample (1 g) DSC	685
550 K, Crystal 1, Large sample (1 g) DSC	693
555 K, Crystal 1, Large sample (1 g) DSC	701
560 K, Crystal 1, Large sample (1 g) DSC	709
